Common to all, as to type: in vivo, Brown Norway rats
The subject of one assay is caspase 2. In words: Caspase 2 colorimetric activity assay in retinal lysates after retinal detachment. Conditions: retinal lysates 24 hours after retinal detachment; 500 mg/kg/day i.p.; P<0.05. The text has this: (§1) In the examples described herein, all animal experiments adhered to the Association for Research in Vision and Ophthalmology Statement for the Use of Animals in Ophthalmic and Vision Research, and protocols were approved by the Animal Care Committee of the Massachusetts Eye and Ear Infirmary. Adult male Brown Norway rats (200 to 300 g) were purchased from Charles River Laboratories (Wilmington, Mass.). The rats were fed standard laboratory chow and allowed free access to water in an air-conditioned room with a 12 hour light/12 hour dark cycle.
(§2) Experimental retinal detachment was induced by subretinal injection of hyaluronic acid as previously described (Hisatomi T et al. (2001) AM. J. PATHOL. 158:1271-1278). Briefly, rats were anesthetized with 100 μl of a mixture of 5 parts Ketamine (100 mg/ml, Phoenix Pharmaceutical, Inc., St Joseph, Mo.), 4 parts PBS and 1 part Xylazine (100 mg/ml, Lloyd Laboratories, Inc., Shenandoah, Iowa). Body temperature was monitored and the animals were kept on a heating pad during the procedure as well as during the recovery period. […]
(§3) The caspase assays were performed on the retina of animals without retinal detachment (n=6) as well as animals with retinal detachment that received vehicle (n=8) or TUDCA (n=8). […] Optical density was assessed at 405 nm and normalized for protein concentration, initial optical density, and compared to a sample filled with buffer. […]

A further assay concerns caspase 9. In words: Caspase 9 colorimetric activity assay in retinal lysates after retinal detachment. Conditions: retinal lysates 24 hours after retinal detachment; 500 mg/kg/day i.p.; P<0.05.
Excerpt: as §1, §2, §3

Another assay deals with caspase 3. In words: Caspase 3 colorimetric activity assay in retinal lysates after retinal detachment. Particulars: retinal lysates 24 hours after retinal detachment; 500 mg/kg/day i.p.; P<0.05.
Excerpt: as §1, §2, §3

For a further assay, the system named is caspase 8. In words: Caspase 8 colorimetric activity assay in retinal lysates after retinal detachment. Conditions: retinal lysates 24 hours after retinal detachment; 500 mg/kg/day i.p.
Excerpt: as §1, §2, §3

A further assay has as its system CD68+ cells. Nature of the assay: Macrophage infiltration (CD68+ immunostaining) in detached retina. Conditions: one day after induction of retinal detachment; 500 mg/kg/day i.p.; vs vehicle.
Excerpt: as §1, §2
In order to assess macrophage infiltration in detached retinas, six eyes from each group (rats treated with vehicle or TUDCA) were analyzed. […] The number of CD68+ cells per […] was determined using the same method as described above for the quantification of TUNEL-positive cells.

A further assay deals with TNF-α. Nature of the assay: TNF-α ELISA on retinal lysates after retinal detachment. Conditions: 24 hours after retinal detachment; 500 mg/kg/day i.p.; vs vehicle.
Excerpt: as §1
as §2, with “period. The pupils were dilated with drops of phenylephrine 5%/tropicamide 0.5%.” for “period.”
(§4) In order to measure inflammatory cytokines, eight eyes from each group (animals without retinal detachment as well as animals with retinal detachment that received vehicle or TUDCA) were analyzed using ELISA assays. […]
On the technique in general: In an ELISA, binding on a coated surface is turned into a signal by an enzyme label.

The next assay deals with protein carbonyl content. In words: Protein carbonyl content ELISA (oxidative stress) in retina after retinal detachment. Particulars: one day (24 hours) after retinal detachment; 500 mg/kg/day i.p.; vs vehicle.
Excerpt: as §1, §2
In order to assess the effect of TUDCA treatment on oxidative stress, the protein carbonyl content in the retina was determined Eight eyes from each group (animals without retinal detachment as well as animals with retinal detachment that received vehicle or TUDCA) were analyzed using ELISA assays. […]

Assay [1] has as its system photoreceptor cells of detached retina (outer nuclear layer). In words: TUNEL staining of photoreceptor death after experimental retinal detachment. Conditions: administration started six hours after induction of retinal detachment; P=0.03; readout not given.
Excerpt: as §1
(§5) Experimental retinal detachment was induced by subretinal injection of hyaluronic acid as previously described (Hisatomi T et al. (2001) AM. J. PATHOL. 158:1271-1278). […] Body temperature was monitored and the animals were kept on a heating pad during the procedure as well as during the recovery period. […]
(§6) All values disclosed below were expressed as the mean±SD. Statistical differences between two groups were analyzed by Mann-Whitney U test. […]
Photoreceptor death was assessed by TUNEL staining, which detects DNA fragmentation in apoptotic or necrotic nuclei. […] Fluorescence was imaged using a DM RXA microscope (Leica, Solms Germany) and digitally captured. The number of TUNEL-positive cells per mm^2 at the central area of the detached retina was counted in a masked fashion. […]

For the next assay, the system named is MCP-1. In words: MCP-1 ELISA on retinal lysates after retinal detachment. Conditions: samples 24 and 72 hours after retinal detachment (FIG. 2B: one day); 500 mg/kg/day i.p.; vs vehicle.
Excerpt: as §1
as §2, with “period. The pupils were dilated with drops of phenylephrine 5%/tropicamide 0.5%.” for “period.”
as §4

A further assay relates to CHOP. Nature of the assay: CHOP western blot (ER stress) of vitreous and neural retina after retinal detachment. Particulars: three days after retinal detachment, systemic administration 500 mg/kg/day i.p.
Excerpt: as §1
as §2, with “period. The pupils were dilated with drops of phenylephrine 5%/tropicamide 0.5%. A partial retinal detachment was induced with a transscleral, subretinal injection of approximately 50 μl of 1% sodium hyaluronate (Provisc, Alcon Laboratories Inc., Fort Worth, Tex.).” for “period.”

Another assay concerns caspase 11. In words: Caspase 11 western blot of vitreous and neural retina after retinal detachment. Particulars: samples three days after retinal detachment, 500 mg/kg/day i.p. In general terms: In western blotting, separated proteins are transferred to a membrane and probed.
Assay [2] deals with photoreceptor cells of detached retina (outer nuclear layer). In words: Outer nuclear layer (ONL) thickness after experimental retinal detachment. Particulars: 500 mg/kg/day i.p., mean±SD.
Excerpt: as §1, §5, §6
Photoreceptor loss was evaluated by measuring the thickness of the outer nuclear layer (ONL). ONL thickness was determined using National Institutes of Health ImageJ software. Thickness was measured based on the outer boundaries of the DAPI nuclear stain. […]

As for `C[C@H](CCC(=O)NCCS(=O)(=O)O)[C@H]1CC[C@H]2[C@@H]3[C@@H](O)C[C@@H]4C[C@H](O)CC[C@]4(C)[C@H]3CC[C@]12C` [TUDCA, tauroursodeoxycholic acid], the “effect on retinal detachment-induced activity of caspase 2” value with caspase 2 is recorded as “significantly decreased”. In the assay on caspase 9, the “effect on retinal detachment-induced activity of caspase 9” value is recorded as “significantly decreased”. The “effect on retinal detachment-induced activity of caspase 3” value with caspase 3 is listed as “significantly decreased”. Also, in the assay on caspase 8, the “effect on activity of caspase 8” value was “did not alter”. The “effect on macrophage infiltration (CD68+ cells)” value in the assay with CD68+ cells was “did not affect macrophage infiltration”. Also, in the assay with TNF-α, the “effect on levels of TNF-α” value is recorded as “did not affect”. Moreover, the “effect on protein carbonyl content” value in the assay with protein carbonyl content is on record as “prevented an increase in protein carbonyl content”. Moreover, the “neuroprotection with delayed treatment (FIG. 1D)” value in assay [1] is “showed efficient neuroprotection”. Further, the “effect on levels of MCP-1” value in the assay with MCP-1 is “did not affect”. In addition, in the assay on CHOP, the “effect on CHOP expression” value is on record as “did not significantly alter CHOP expression”. Further, the “effect on activity of caspase 11” value with caspase 11 was “did not alter”. In addition, the “ONL thickness ratio (normalized, detached/attached retina)” value worked out at 0.79±0.03 in [2] (five days after detachment, vehicle 0.57±0.04, P=0.002) and 0.84±0.03 in [2] (three days of retinal detachment, vehicle 0.65±0.03, P=0.0016).

The values above are taken from US9724357B2, “Methods for preserving photoreceptor cell viability following retinal detachment” (Massachusetts Eye & Ear Infirmary, priority 2011, dated 2017).
